The values that follow come from patent publication US11654136B2, “Phosphoinositide 3-kinase inhibitor with a zinc binding moiety” (Curis, Inc., priority 2011, dated 2023).

The structures appear in SMILES notation.

Series [1] in a line: Pharmacokinetic study in dogs. The format is in vivo. The conditions noted are these: beagle dogs. From the text: FIG. 4 is a graph of plasma concentration versus time for both oral and iv dosing.
Series [2] has as its system Daudi human Burkitt's lymphoma xenograft. As to the kind of experiment: Comparison with CAL-101 in the Daudi xenograft tumor model. The format is in vivo, SCID beige mice. To be noted: 100 mg/kg Qd (Mon-Fri), PO; 18 days. As to the method:
Female SCID beige mice (CD-1 Beige SCID) at 6-8 weeks of age were housed in ventilated micro-isolator cages in a controlled climate, fed with sterile high-fat diet (Problab-RMH 2000 ad libitum and provided with sterilized water. All housing and supplies for SCID beige mice are disposable, and purchased irradiated from Innovive prior to use. Mice were inspected daily including weekends/holidays by trained animal facility personnel and investigators. All animal procedures were performed under sterile conditions in a biosafety cabinet (for injections) or laminar flow hood (for animal husbandry and non-invasive procedures).
Daudi human Burkitt's lymphoma cells were originally obtained from a human Burkitt's lymphoma patient. […] The implanted mice were monitored for general health and tumor development daily.
Tumors were detectable about two weeks following implantation. Tumor size was measured with a caliper. […]
During each animal study, tumors were measured with calipers, tumor size determined using the above mentioned formula, and tumor size changes in percentage calculated. Mouse body weights were measured with a scale twice per week. […] T/C values were calculated using the following formula: % T/C=100×ΔT/ΔC if ΔT>0. […]
Tumor sizes and body weights were measured again on the last day of the study.

As to `COc1ccc(-c2nc(N3CCOCC3)c3sc(CN(C)c4ncc(C(=O)NO)cn4)cc3n2)cn1` [Compound 1, N-hydroxy-2-(((2-(6-methoxypyridin-3-yl)-4-morpholinothieno[3,2-d]pyrimidin-6-yl)methyl)(methyl)amino)pyrimidine-5-carboxamide], the “Area under the Curve” value in series [1] (IV 5 mg/kg, plasma) was 2977.47 ng/mL * hr; in series [1] (PO Capsule 5 mg/kg, plasma), 450.4 ng/mL * hr. Besides, the Half-life in series [1] (IV 5 mg/kg, plasma) amounted to 1.85 h; in series [1] (PO Capsule 5 mg/kg, plasma) it was 4.88 h. In addition, in series [1] (dog, plasma, PO Capsule 5 mg/kg), the bioavailability turned out to be 15.1%. Besides, the Cmax in series [1] (dog, IV 5 mg/kg, plasma) is 6160 ng/mL; in series [1] (dog, PO Capsule 5 mg/kg, plasma), 312 ng/mL. Also, in series [1] (oral 5 mg/kg in enteric capsules), the “Plasma levels after oral dosing” value was “Significant plasma levels”. Moreover, in series [2], the Tumor growth result was “significantly reduced tumor growth compared to the CAL-101 and control groups”.

What is called bioavailability is dose-corrected exposure relative to a reference, in per cent. A high value points to good availability. As a reminder, the Cmax is the highest concentration seen after dosing.
